Test results reported in patent publication US20110301222A1, “COMBINATION THERAPY FOR THE TREATMENT OF CANCER” (Isis Pharmaceuticals, Inc., priority 2008, published 2011).
Marks after values point to notes of the source that are not given here. In the oligonucleotide strings, read from the 5' end, every base follows the letter of its sugar. An asterisk marks phosphorothioate; unmarked linkages are phosphodiester. Other units and linkages are bracketed, terminal groups are in braces. A string of capitals states the bases alone. e = 2'-O-(2-methoxyethyl) (MOE); [5mC] = 5-methylcytosine; d = 2'-deoxy (DNA)

What was measured:
Format in all cases: in vivo, athymic nude mice
[1] = test system: A549 Non-Small Cell Lung Cancer Xenograft; experiment: A549 non-small cell lung cancer xenograft tumor volume in mice; conditions: for Mean Tumor Volume: ASO 50 mg/kg i.v., docetaxel 10 mg/kg IP once weekly, from 8 days after first ASO dose; for Percent Reduction in Mean Tumor Volumes (observed): NSCLC A549, Day 50, vs. vehicle control, negative = reduction, docetaxel 10 mg/kg
Protocol: (§1) To determine whether the eIF-4E ASO complements or enhances the activity of docetaxel, the effect of the combined use of the eIF-4E ASO and docetaxel on tumor volume in 3 human xenograft cancer models is studied as follows.
(§2) Xenograft studies are carried out as described in Graff et al. (2005) Cancer Res. 65:7462-7469. Five million human cancer cells representing non-small cell lung cancer (line A549; ATCC, accession no. CCL-185), hormone refractory prostate cancer (line PC-3; ATCC, accession no. CRL-1435), and ER-/PR-HER2-breast cancer (line MDA-231; ATCC, accession no. HTB-26) are injected subcutaneously in the flank of 6-8 week old, athymic nude mice (Harlan, Indianapolis, Ind.) in a 1:1 mixture of serum-free growth medium and matrigel (Becton Dickinson, Bedford, Mass., catalogue # 354234). Mice are monitored daily for palpable tumors.
(§3) When tumor volumes reach ˜50-100 mm^3, mice are randomized to treatment groups (Graff et al. (2007) J. Clin. Invest. 117:2638-48). Body weight is monitored each time tumors are measured.
(§4) For treatment, all mice are injected intravenously with the eIF-4E ASO in saline in a total volume of 200 μl. The ASO consists of the nucleotide sequence 5′-[…]-3′ (SEQ ID NO:1), in which every internucleoside linkage is a phosphorothioate linkage, nucleotides 1-5 and 16-20 reading from the 5′ end to the 3′ end each comprise a 2′-O-(2-methoxyethyl) sugar, nucleotides 6-15 are 2′-deoxynucleotides, every cytosine residue is a 5-methylcytosine, and which is in the form of a sodium salt. The mice are first injected with an initial loading dose of 50 mg/kg ASO for 3 consecutive days, followed by 50 mg/kg thrice weekly thereafter.
(§5) Taxotere® (docetaxel) dosing begins 8 days after the first ASO dose to allow time for reduction of eIF-4E protein expression. Mice are dosed with 2.5 or 10 mg/kg Taxotere® (Sanofi-Aventis) intraperitoneally (IP) in 1% ethanol in 5% dextrose water in a volume of 200 μl once weekly for 3 weeks.
(§6) Tumor volumes are calculated measuring the largest (L) and smallest (W) diameters with a caliper. The formula is: Volume=L×W^2×0.534. Tumor volume data are transformed to a log scale to equalize variance across time and treatment groups. The log volume data are analyzed with a two-way repeated measures analysis of variance by time and treatment using SAS PROC MIXED software (SAS Institute Inc, Cary, N.C.) using the spatial power covariance structure. Treatment groups are compared to the control group at each time point and overall. The data may be plotted as means and standard errors for each treatment group versus time. Additivity is assessed in two ways: (1) as an overall interaction effect between the ASO and Taxotere® in the repeated measures analysis, and (2) by using the Bliss Independence method on the final day of the study (C. I. Bliss (1939) Ann. Appl. Biol. 26:585-615). These two methods yield the same results.
(§7) The observed percent reductions in mean tumor volume at the conclusion of each study resulting from the various treatments are shown in Table 4. These are calculated as: […]
(§8) The “Expected if Additive” percent reductions in mean tumor volume shown in Table 4 are calculated using the Bliss Independence definition of additivity, as follows: […]

[2] = test system: MDA-231 Breast Cancer Xenograft; experiment: MDA-231 breast cancer xenograft tumor volume in mice; conditions: for Percent Reduction in Mean Tumor Volumes (observed): Breast MDA-231, Day 33, vs. vehicle control, negative = reduction, + = increase, Taxotere 2.5 mg/kg; for Mean Tumor Volume: ASO 50 mg/kg i.v., Taxotere 2.5 mg/kg IP once weekly, from 8 days after first ASO dose
Protocol: as §1, §2, §3, §4, §5, §6, §7, §8

[3] = test system: PC-3 Hormone-Refractory Prostate Cancer Xenograft; experiment: PC-3 hormone-refractory prostate cancer xenograft tumor volume in mice; conditions: for Mean Tumor Volume: ASO 50 mg/kg i.v., Taxotere 10 mg/kg IP once weekly, from 8 days after first ASO dose; for Percent Reduction in Mean Tumor Volumes (observed): Prostate PC3, Day 35, vs. vehicle control, negative = reduction, Taxotere 10 mg/kg
Protocol: as §1, §2, §3, §4, §5, §6, §7, §8

Row | Compound | Mean Tumor Volume ([1]; Day 7) [mm^3] | Mean Tumor Volume ([1]; Day 10) [mm^3] | Mean Tumor Volume ([1]; Day 15) [mm^3] | Mean Tumor Volume ([1]; Day 18) [mm^3] | Mean Tumor Volume ([1]; Day 22) [mm^3] | Mean Tumor Volume ([1]; Day 25) [mm^3] | Mean Tumor Volume ([1]; Day 29) [mm^3] | Mean Tumor Volume ([1]; Day 32) [mm^3] | Mean Tumor Volume ([1]; Day 36) [mm^3] | Mean Tumor Volume ([1]; Day 39) [mm^3] | Mean Tumor Volume ([1]; Day 43) [mm^3] | Mean Tumor Volume ([1]; Day 46) [mm^3] | Mean Tumor Volume ([1]; Day 50) [mm^3] | Percent Reduction in Mean Tumor Volumes (observed) [1] [%] | Percent Reduction in Mean Tumor Volumes (observed) [2] | Mean Tumor Volume ([2]; Day 5) [mm^3] | Mean Tumor Volume ([2]; Day 8) [mm^3] | Mean Tumor Volume ([2]; Day 12) [mm^3] | Mean Tumor Volume ([2]; Day 15) [mm^3] | Mean Tumor Volume ([2]; Day 19) [mm^3] | further results
1 | CC(=O)O[C@@]12CO[C@@H]1C[C@H](O)[C@@]1(C)C(=O)[C@H](O)C3=C(C)[C@@H](OC(=O)[C@H](O)[C@@H](NC(=O)OC(C)(C)C)c4ccccc4)C[C@@](O)([C@@H](OC(=O)c4ccccc4)[C@H]21)C3(C)C [Docetaxel, (2R,3S)—N-carboxy-3-phenylisoserine,N-tert-butyl ester, 13-ester with 5β-20-epoxy-1,2α,4,7β,10β,13α-hexahydroxytax-11-en-9-one 4-acetate 2-benzoate, trihydrate, reference compound] | 49.7 | 56.7 | 114.8 | 70.0 | 135.8 | 170.1 | 257.0 | 261.5 | 290.0 | 282.3 | 342.6 | 310.2 | 343.8 | −29.6 | −1.4% | 78.7 | 130.1 | 180.9 | 221.0 | 270.3 | Mean Tumor Volume ([2]; Day 22): 333.9 mm^3; Mean Tumor Volume ([2]; Day 26): 384.9 mm^3; Mean Tumor Volume ([2]; Day 29): 450.4 mm^3; Mean Tumor Volume ([2]; Day 33): 529.6 mm^3; Mean Tumor Volume ([3]; Day 7): 46.3 mm^3; Mean Tumor Volume ([3]; Day 12): 106.8 mm^3; Mean Tumor Volume ([3]; Day 15): 134.7 mm^3; Mean Tumor Volume ([3]; Day 19): 164.8 mm^3; Mean Tumor Volume ([3]; Day 22): 171.7 mm^3; Mean Tumor Volume ([3]; Day 27): 157.4 mm^3; Mean Tumor Volume ([3]; Day 29): 162.7 mm^3; Mean Tumor Volume ([3]; Day 33): 161.6 mm^3; Mean Tumor Volume ([3]; Day 35): 167.0 mm^3; Percent Reduction in Mean Tumor Volumes (observed) [3]: −69.5%*
2 | d(P-thio) ([2′-O-(2-methoxyethyl)] m5rU-([2′-O-(2-methoxyethyl)] rG-([2′-O-(2-methoxyethyl)] m5rU-([2′-O-(2-methoxyethyl)] m5rC-([2′-O-(2-methoxyethyl)] rA-T-A-T-T-m5C-m5C-T-G-G-A-([2′-O-(2-methoxyethyl)] m5rU-([2′-O-(2-methoxyethyl)] m5rC-([2′-O-(2-methoxyethyl)] m5rC-([2′-O-(2-methoxyethyl)] m5rU-([2′-O-(2-methoxyethyl)] m5rU) (antisense eT*eG*eT*e[5mC]*eA*dT*dA*dT*dT*d[5mC]*d[5mC]*dT*dG*dG*dA*eT*e[5mC]*e[5mC]*eT*eT) [eIF-4E ASO] | 52.7 | 69.4 | 113.7 | 79.1 | 139.5 | 149.0 | 220.1 | 249.5 | 256.6 | 239.1 | 313.2 | 292.3 | 404.0 | −17.3 | +16.6% | 78.9 | 129.4 | 166.6 | 221.0 | 268.2 | Mean Tumor Volume ([2]; Day 22): 356.3 mm^3; Mean Tumor Volume ([2]; Day 26): 435.9 mm^3; Mean Tumor Volume ([2]; Day 29): 574.1 mm^3; Mean Tumor Volume ([2]; Day 33): 626.2 mm^3; Effect on mean tumor volume (in words) ([2]; breast cancer model, ASO alone): non-statistically significant increase in mean tumor volume; Mean Tumor Volume ([3]; Day 7): 49.8 mm^3; Mean Tumor Volume ([3]; Day 12): 88.3 mm^3; Mean Tumor Volume ([3]; Day 15): 130.3 mm^3; Mean Tumor Volume ([3]; Day 19): 159.0 mm^3; Mean Tumor Volume ([3]; Day 22): 218.8 mm^3; Mean Tumor Volume ([3]; Day 27): 294.5 mm^3; Mean Tumor Volume ([3]; Day 29): 343.9 mm^3; Mean Tumor Volume ([3]; Day 33): 424.0 mm^3; Mean Tumor Volume ([3]; Day 35): 491.2 mm^3; Percent Reduction in Mean Tumor Volumes (observed) [3]: −10.2%
